Data published in patent US9113629B2, “4-amino-6-(4-substituted-phenyl)-picolinates and 6-amino-2-(4-substituted-phenyl)-pyrimidine-4-carboxylates and their use as herbicides” (DOW AGROSCIENCES LLC, priority 2013, dated 2015).
Like-named read-outs stand apart in the source and are kept apart here.

How the values were obtained:
Assay in all cases: Post-emergent Test III, herbicidal activity in wheat and barley
Assay type in all cases: in vivo
[1] = tested on: KCHSC: kochia (Kochia scoparia); settings: for pest or weed control at 35 g/ha: 35 g ai/ha; for pest or weed control at 70 g/ha: 70 g ai/ha; for GR50 KCHSC / GR80 KCHSC: probit analysis
Method in brief: (§1)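 GR20, GR50, GR80 and GR90 come from probit analysis of visual injury scores (0 = none, 100 = complete kill) taken 21 d after treatment. Foliar application was by track sprayer delivering 187 L/ha at five rates, from high down to 1/16×, onto greenhouse plants at the 2–3 leaf stage, with solvent-blank controls.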

[2] = tested on: HORSS: barley, including spring and winter (Hordeum vulgare); settings: 21 days after application; for pest or weed control at 35 g/ha / pest or weed control at 70 g/ha: Hordeum vulgare, post-emergence, 504 h, read-out: Visual Gorowth Reduction (%) 21 days After Application HORSS; for pest or weed control at 35 g/ha: 35 g ai/ha; for pest or weed control at 70 g/ha: 70 g ai/ha; for GR20 HORSS: probit analysis, dose for 20 percent growth reduction (crop)
Method in brief: as §1

[3] = tested on: TRZSS: wheat, including spring and winter (Triticum aestivum); settings: 21 days after application; for pest or weed control at 35 g/ha / pest or weed control at 70 g/ha: Triticum aestivum, post-emergence, 504 h, read-out: Visual Gorowth Reduction (%) 21 days After Application TRZSS; for pest or weed control at 35 g/ha: 35 g ai/ha; for pest or weed control at 70 g/ha: 70 g ai/ha; for GR20 TRZSS: probit analysis, dose for 20 percent growth reduction (crop)
Method in brief: as §1

[4] = tested on: VERPE: bird's-eye speedwell (veronica persica); settings: 21 days after application; for pest or weed control at 35 g/ha / pest or weed control at 70 g/ha: Veronica persica, post-emergence, 504 h, read-out: Visual Gorowth Reduction (%) 21 days After Application VERPE; for pest or weed control at 35 g/ha: 35 g ai/ha; for pest or weed control at 70 g/ha: 70 g ai/ha; for GR50 VERPE / GR80 VERPE: probit analysis; for GR50 VERPE: dose for 50 percent growth reduction; for GR80 VERPE: dose for 80 percent growth reduction
Method in brief: as §1

[5] = tested on: SASKR: Russian thistle (Salsola iberica); settings: 21 days after application; for pest or weed control at 35 g/ha / pest or weed control at 70 g/ha: Salsola tragus, post-emergence, 504 h, read-out: Visual Gorowth Reduction (%) 21 days After Application SASKR; for pest or weed control at 35 g/ha: 35 g ai/ha; for pest or weed control at 70 g/ha: 70 g ai/ha; for GR50 SASKR / GR80 SASKR: probit analysis; for GR50 SASKR: dose for 50 percent growth reduction; for GR80 SASKR: dose for 80 percent growth reduction
Method in brief: as §1

[6] = tested on: VIOSS: wild pansy (Viola tricolor), field violet (Viola arvensis); settings: 21 days after application; for pest or weed control at 35 g/ha / pest or weed control at 70 g/ha: Viola tricolor, post-emergence, 504 h, read-out: Visual Gorowth Reduction (%) 21 days After Application VIOSS; for pest or weed control at 35 g/ha: 35 g ai/ha; for pest or weed control at 70 g/ha: 70 g ai/ha; for GR50 VIOSS / GR80 VIOSS: probit analysis; for GR50 VIOSS: dose for 50 percent growth reduction; for GR80 VIOSS: dose for 80 percent growth reduction
Method in brief: as §1

[7] = tested on: MATSS: scented mayweed (Matricaria chamomilla), pineappleweed (Matricaria matricarioides); settings: for pest or weed control at 35 g/ha: 35 g ai/ha; for pest or weed control at 70 g/ha: 70 g ai/ha; for GR50 MATSS / GR80 MATSS: probit analysis
Method in brief: as §1

LAMSS = tested on: LAMSS
Method in brief: as §1

[8] = Bassia scoparia, post-emergence, 504 h, 21 days after application, read-out: Visual Gorowth Reduction (%) 21 days After Application KCHSC
[9] = dose for 50 percent growth reduction, 21 days after application
[10] = dose for 80 percent growth reduction, 21 days after application
[11] = Matricaria chamomilla, post-emergence, 504 h, 21 days after application, read-out: Visual Gorowth Reduction (%) 21 days After Application MATSS
[12] = Bassia scoparia, post-emergence, 504 h, read-out: Visual Growth Reduction (%) 21 Days After Application KCHSC
[13] = dose for growth reduction of 50 percent, 21 days after application
[14] = dose for growth reduction of 80 percent, 21 days after application
[15] = Matricaria chamomilla, post-emergence, 504 h, read-out: Visual Growth Reduction (%) 21 Days After Application MATSS

Compound: Nc1c(F)c(-c2ccc(I)c(F)c2)nc(C(=O)O)c1Cl [Compound 157]
- pest or weed control at 35 g/ha [1, 8]: 85 to 94%
- pest or weed control at 70 g/ha [1, 8]: 85 to 94%
- GR50 KCHSC [1, 9]: 6 g ai/ha
- GR80 KCHSC [1, 10]: 18 g ai/ha
- pest or weed control at 35 g/ha [2]: 85 to 94%
- pest or weed control at 70 g/ha [2]: 95 to 100%
- GR20 HORSS [2]: 1 g ai/ha
- pest or weed control at 35 g/ha [3]: 75 to 84%
- pest or weed control at 70 g/ha [3]: 75 to 84%
- GR20 TRZSS [3]: 1 g ai/ha
- pest or weed control at 35 g/ha [4]: 30 to 44%
- pest or weed control at 70 g/ha [4]: 60 to 74%
- GR50 VERPE [4]: 50 g ai/ha
- GR80 VERPE [4]: >140 g ai/ha
- pest or weed control at 35 g/ha [5]: 75 to 84%
- pest or weed control at 70 g/ha [5]: 85 to 94%
- GR50 SASKR [5]: 11 g ai/ha
- GR80 SASKR [5]: 34 g ai/ha
- pest or weed control at 35 g/ha [6]: 95 to 100%
- pest or weed control at 70 g/ha [6]: 95 to 100%
- GR50 VIOSS [6]: 1 g ai/ha
- GR80 VIOSS [6]: 4 g ai/ha
- pest or weed control at 35 g/ha [7, 11]: 60 to 74%
- pest or weed control at 70 g/ha [7, 11]: 75 to 84%
- GR50 MATSS [7, 9]: 21 g ai/ha
- GR80 MATSS [7, 10]: 64 g ai/ha

Compound: COc1c(N)nc(-c2ccc(I)c(F)c2F)nc1C(=O)O [Compound 89]
- pest or weed control at 35 g/ha [1, 8]: 85 to 94%
- pest or weed control at 70 g/ha [1, 8]: 85 to 94%
- GR50 KCHSC [1, 9]: 12 g ai/ha
- GR80 KCHSC [1, 10]: 25 g ai/ha
- pest or weed control at 35 g/ha [2]: 60 to 74%
- pest or weed control at 70 g/ha [2]: 60 to 74%
- GR20 HORSS [2]: 3 g ai/ha
- pest or weed control at 35 g/ha [3]: 75 to 84%
- pest or weed control at 70 g/ha [3]: 85 to 94%
- GR20 TRZSS [3]: 1 g ai/ha
- pest or weed control at 35 g/ha [4]: 95 to 100%
- pest or weed control at 70 g/ha [4]: 95 to 100%
- GR50 VERPE [4]: 3 g ai/ha
- GR80 VERPE [4]: 6 g ai/ha
- pest or weed control at 35 g/ha [5]: 85 to 94%
- pest or weed control at 70 g/ha [5]: 85 to 94%
- GR50 SASKR [5]: 9 g ai/ha
- GR80 SASKR [5]: 21 g ai/ha
- pest or weed control at 35 g/ha [6]: 95 to 100%
- pest or weed control at 70 g/ha [6]: 95 to 100%
- GR50 VIOSS [6]: 11 g ai/ha
- GR80 VIOSS [6]: 19 g ai/ha
- pest or weed control at 35 g/ha [7, 11]: 75 to 84%
- pest or weed control at 70 g/ha [7, 11]: 85 to 94%
- GR50 MATSS [7, 9]: 14 g ai/ha
- GR80 MATSS [7, 10]: 36 g ai/ha

Compound: COC(=O)c1nc(-c2ccc(F)cc2)c(F)c(N)c1Cl [Compound 204]
- pest or weed control at 35 g/ha [1, 12]: 85 to 94%
- pest or weed control at 70 g/ha [1, 12]: 95 to 100%
- pest or weed control at 140 g/ha ([1]; Bassia scoparia, post-emergence, 504 h, 140 g ai/ha, read-out: Visual Growth Reduction (%) 21 Days After Application KCHSC): 95 to 100%
- GR50 KCHSC [1, 13]: 2 g ai/ha
- GR80 KCHSC [1, 14]: 9 g ai/ha
- pest or weed control at 35 g/ha (LAMSS; post-emergence, 504 h, 35 g ai/ha, read-out: Visual Growth Reduction (%) 21 Days After Application LAMSS): 85 to 94%
- pest or weed control at 70 g/ha (LAMSS; post-emergence, 504 h, 70 g ai/ha, read-out: Visual Growth Reduction (%) 21 Days After Application LAMSS): 95 to 100%
- pest or weed control at 140 g/ha (LAMSS; post-emergence, 504 h, 140 g ai/ha, read-out: Visual Growth Reduction (%) 21 Days After Application LAMSS): 95 to 100%
- GR50 LAMSS (LAMSS; probit analysis, dose for growth reduction of 50 percent, 21 days after application): 1 g ai/ha
- GR80 LAMSS (LAMSS; probit analysis, dose for growth reduction of 80 percent, 21 days after application): 8 g ai/ha
- pest or weed control at 35 g/ha [7, 15]: 0 to 29%
- pest or weed control at 70 g/ha [7, 15]: 0 to 29%
- pest or weed control at 140 g/ha ([7]; Matricaria chamomilla, post-emergence, 504 h, 140 g ai/ha, read-out: Visual Growth Reduction (%) 21 Days After Application MATSS): 0 to 29%
- GR50 MATSS [7, 13]: >140 g ai/ha
- GR80 MATSS [7, 14]: >140 g ai/ha
